{"source": "patent US9169509B2", "about": "“Topoisomerase 2b as a predictor of susceptibility to anthracycline-induced cardiotoxicity” (Board of Regents, The University of Texas System, priority 2013, dated 2015)", "format_in_all_cases": "in vivo, mouse", "key": {"[1]": {"test_system": "DNA double strand breaks in the heart", "experiment": "Detection of DNA double strand breaks (γ-H2AX staining) in heart sections", "details": "acute doxorubicin 25 mg/kg, 16 h", "experimental": "After mice were sacrificed, hearts were perfused with ice-cold PBS, quickly removed, embedded in OCT compound (Fisher Scientific), and snap-frozen in liquid nitrogen. The heart was sectioned to 5 μm-thick slices using a cryostat. Heart sections were stored at −80° C. until immunofluorescence staining was performed. Heart sections were rinsed with PBS at room temperature, fixed in BD Cytofix/Cytoperm solution (BD Biosciences) for 15 m, washed in PBS, and permeabilized in BD Perm/Wash solution for 30 m. Heart sections were first blocked with BSA (2 mg/ml) for 30 m, then incubated with an mouse monoclonal anti-γ-H2AX antibody conjugated with Alexa Fluor 555 (Clone N1-431, BD Biosciences) for 1 h. Nuclei were stained with DAPI (Sigma, 1 μg/ml PBS), and the slides were sealed for examination with an Olympus epifluorescence microscope (Model BX51). To quantify DSBs, the numbers of γ-H2AX-positive nuclei and the total nuclei were counted in 5 microscopic fields (400×) per section. For each mouse, five heart sections were counted to determine the percentage of γ-H2AX-positive nuclei.\nTo further confirm the cardio-protective effect of Dex, DNA double strand breaks were assessed in heart tissues. Dexrazoxane (100 mg/kg) was injected (ip) 8 hrs prior to doxorubicin (25 mg/kg) treatment. Hearts were harvested 16 hr after doxorubicin treatment. The percentage of γH2AX-positive nuclei was counted in 5 fields (400×) in each heart section. Five sections were counted in each heart to determine the average percentage of γH2AX-positive nuclei."}, "[2]": {"test_system": "heart sections", "experiment": "Detection of apoptosis in heart sections (TUNEL assay)", "details": "after acute doxorubicin treatment", "experimental": "Apoptosis was detected by using TUNEL assay on heart sections. Heart harvest, sectioning, and storage were described above. Heart sections were warmed to room temperature before the apoptotic nuclei were stained by using a commercially available kit (In Situ Cell Death Detection Kit, Cat. No. 12156792910, Roche Applied Science). The entire staining procedures were performed according to the manufacturer's instructions. The nuclei were stained with DAPI (Sigma) before the slides were sealed and examined with an Olympus epifluorescence microscope (Model BX51). The apoptotic nuclei and the total nuclei per heart section were counted at 200× magnification. The apoptotic nuclei in 5 heart sections of each mouse were counted and averaged.\nThe cardio-protective effect of Dex against doxirubin-induced apoptosis was assessed in heart tissues. Dexrazoxane (100 mg/kg) was injected (ip) 8 hrs prior to doxorubicin (25 mg/kg) injection (ip). One group received only doxorubicin and a second group received only dexrazoxane. Hearts were harvested 16 hrs after doxorubicin treatment. The numbers of TUNEL-positive nuclei were counted in five fields in each heart section."}, "[3]": {"test_system": "cardiomyocytes", "experiment": "Oxygen consumption rate (Seahorse XF96) of isolated cardiomyocytes", "details": "wild type cardiomyocytes, 72 hrs after doxorubicin 25 mg/kg; not in Top2b deleted", "experimental": "FIGS. 5a-c: a. Determination of oxygen consumption rate (OCR). Cardiomyocytes were isolated from hearts of Top2b^+/+ and Top2b^Δ/Δ mice 72 hrs after treatment with doxorubicin (25 mg/kg; right bars) or drug vehicle (left bars). The cardiomyocytes were seeded in 96-well plates for oxygen consumption measurement using a Seahorse XF96 instrument. OCR was measured continuously for 90 min in […] from each mouse. The basic OCR was hardly changed during the 90 min measurement, therefore, the OCR at 90 min was compared among the groups. After measurement, the number of cells was counted. Results were normalized as pmoles of oxygen consumed per min per 1,000 cells. Bars represent means±SEM. Asterisk indicates statistically significant difference (p<0.05). b. ROS production in the hearts. Representative images of heart sections stained with Dihydroethidium (DHE), which, after being oxidized, intercalates into DNA and stains the nuclei red. Hearts were harvested 16 hrs after doxorubicin treatment (25 mg/kg) and snap-frozen as described. Heart sections were stained with DHE immediately. […] Quantification of ROS production in FIG. 5b. The numbers of DHE-positive and total nuclei were counted as described and the percentage of DHE-positive nuclei was determined. Quantitative data (mean±SEM) were shown as a bar graph below the images. […]"}, "[4]": {"test_system": "heart sections", "experiment": "Detection of reactive oxygen species (DHE staining) in heart sections", "text": "The hearts were isolated on ice, embedded in OCT, snap frozen in liquid nitrogen, sectioned into 5 μm-thick slices, and ROS generation was detected immediately by using dihydroethidium (DHE). Doxorubicin treatment generated ROS in the hearts of Top2b^+/+ mice, but this was reduced by 70% in Top2b^Δ/Δ mice (FIGS. 5b,c).\nThe hearts were perfused with ice-cold PBS and quickly removed. The hearts were embedded in OCT and snap-frozen in liquid nitrogen. Series of 5 μm-thick slices were sectioned from the heart immediately. Tissue sections were then stained with Dihydroethidium (DHE, Invitrogen) for 15 m, followed by staining with DAPI (1 μg/ml, Sigma). Tissue slides were sealed and examined with an Olympus epifluorescence microscope (Model BX51). The numbers of DHE-positive nuclei and the total nuclei were counted in 5 microscopic fields (400×) per section. Five heart sections from each mouse were counted to determine the percentage of the DHE-positive nuclei."}}}
{"compound": "COc1cccc2c1C(=O)c1c(O)c3c(c(O)c1C2=O)C[C@@](O)(C(=O)CO)C[C@@H]3O[C@H]1C[C@H](N)[C@H](O)[C@H](C)O1", "note": "[doxorubicin]", "values": [{"measurement": "DSBs in the nuclei (γ-H2AX-positive nuclei)", "setting": "[1]; Top2b+/+ mice", "result": "caused DSBs"}, {"measurement": "Reduction of doxorubicin-caused DSBs in Top2bΔ/Δ mice versus Top2b+/+ mice", "setting": "[1]", "result": 60, "unit": "%"}, {"measurement": "Reduction of TUNEL-positive nuclei in hearts of Top2bΔ/Δ mice compared with Top2b+/+ mice", "setting": "[2]", "result": 70, "unit": "%"}, {"measurement": "Oxygen consumption rate (OCR)", "setting": "[3]", "result": "significantly reduced"}, {"measurement": "Reduction of doxorubicin-generated ROS in Top2bΔ/Δ mice versus Top2b+/+ mice", "setting": "[4]; 16 hrs after doxorubicin 25 mg/kg", "result": 70, "unit": "%"}, {"measurement": "ROS generation (DHE)", "setting": "[4]; Top2b+/+ hearts, chronic doxorubicin 5 mg/kg once a week for 5 weeks", "result": "generation of ROS"}, {"measurement": "ROS generation in the hearts (DHE-positive nuclei)", "setting": "[4]; Top2b+/+ mice, 16 hrs after doxorubicin 25 mg/kg", "result": "generated ROS"}]}
